Reference: patent US12303509B2, “Compounds for the treatment of BRAF-associated diseases and disorders” (Pfizer Inc., priority 2020, dated 2025)
Counter-ions that a name gives are not always drawn.

Assays:
[1] = target: full-length FLAG-tagged B-Raf(V600E) (Homo sapiens (Human), UniProt P15056, V600E); assay: BRAF V600E enzyme assay (TR-FRET competitive displacement); format: binding; details: averaged IC50; TR-FRET tracer displacement, 60 min
Protocol: A competitive displacement assay was configured for B-Raf that monitors the amount of a fluorescently-tagged “tracer” bound to B-Raf via TR-FRET from an anti-tag Eu-labeled antibody also bound to B-Raf. For full-length FLAG-tagged B-Raf(V600E), the assay mixtures consisted of 25 mM K^+HEPES, pH 7.4, 10 mM MgCl2, 0.01% Triton X-100, 1 mM DTT, 2% DMSO (from compound), 50 nM Tracer 1710 (ThermoFisher, PR9176A), 0.5 nM Eu anti-FLAG (M2)-cryptate Ab (Cisbio, 61FG2KLB) and 5 nM full-length, N-terminally FLAG-tagged B-Raf(V600E) (Origene Technologies, TP700031. Compounds were typically diluted in DMSO across an 11-point dosing range created using a 3-fold serial dilution protocol at a top dose of 10 μM. The assay was run in 384-well, polystyrene, low-volume, non-treated, white microtiter plates (Costar 4512) in a final volume of 12 μL. Low control wells included 1 μM of a potent B-Raf inhibitor as a control. The assays were incubated at ambient temperature (typically 22° C.) for 60 min and then read on a PerkinElmer EnVision microplate reader using standard TRF settings (λEx=320 nm, λEm=615 & 665 nm). The ratioed counts (665 nm/615 nm) were converted to percent of control (POC) using the following equation:
[formula] • where: • Xmax Average Uninhibited Controls • Xmin Average Background
A 4-parameter logistic model was the fit to the POC data for each compound. From that fit, the IC50 was estimated and is defined as the concentration of compound at which the best-fit curve crosses 50 POC.

A375 cells = assay: Cellular phospho-ERK inhibition assay in A375 cells; format: cell-based; details: Homo sapiens, A-375, A375 cells (head prints A357), 2 hours treatment, read-out: A357 cell IC50
Protocol: (§1) A375 and H1755 cells were obtained from the American Type Culture Collection (ATCC, Rockville, MD). A375 cells were maintained in DMEM growth medium containing 10% FBS. H1755 cells were maintained in RPMI growth medium containing 10% FBS.
(§2) Cells were harvested according to standard protocols, counted and plated onto flat-bottom, 96-well tissue culture plates (Costar #3599) at 2.5×10^4 cells/well for A375 cells and 1.5×10^4 cells/well for H1755 cells in 100 μL/well of growth medium containing 10% FBS. After an overnight incubation at 37° C. with 5% CO2 cells were treated for 2 hours at 37° C., 5% CO2 with compounds prepared as a 9-point, 1:3.33 fold dilution series with final compound concentrations ranging from 66 pM-10 μM and a constant DMSO concentration of 0.25%. Control wells contained either 0.25% DMSO alone (uninhibited control) or 10 μM binimetinib (complete inhibition control). The levels of phosphorylated ERK are determined using an In Cell Western protocol: following compound incubation, growth medium was discarded, and cells were fixed with 0.4% formaldehyde in PBS for 20 minutes at room temperature. Cells were permeabilized with 100% methanol for 10 minutes at room temperature. Plates were washed with PBS containing 0.05% Tween-20 and blocked for 1 hour at room temperature with LI-COR Blocking Buffer (LI-COR Biosciences; Cat #927-40000). Plates were then incubated for 2 hours at room temperature with 50 μL of a 1:400 dilution of anti-phospho-ERK1/2 (Thr202/Tyr204) (Cell Signaling; Cat #9101) and a 1:1000 dilution of anti-GAPDH (Millipore; Cat #MAB374) in LI-COR blocking buffer containing 0.05% Tween-20. Plates were washed with PBS containing […] Tween-20 then incubated at room temperature for 1 hour with 50 μL of a 1:1000 dilution of anti-rabbit AlexaFluor 680 (Life Technologies; Cat #A21109) and a 1:1000 dilution of anti-mouse IRDye 800CW (LI-COR; Cat #926-32210) in LI-COR blocking buffer containing 0.05% Tween-20. Plates were analyzed by reading on an Odyssey CLx infrared scanner. For each well, the phospho-ERK signal was normalized to the GAPDH signal and converted to POC using the following equation:
(§3) [formula] • Where: • Xmax Average Uninhibited Controls • Xmin Average Complete Inhibition Controls IC50 values were then calculated using a 4-parameter fit in XLfit software and are provided in Table A1.

H1755 cells = assay: Cellular phospho-ERK inhibition assay in H1755 cells; format: cell-based; details: Homo sapiens, NCI-H1755, 2 hours treatment, read-out: H1755 Cell IC50
Protocol: as §1, §2, §3

[2] = MDR1 LLC-PK1 and BCRP MDCKII permeability assay: permeability coefficient (Papp); format: in vitro ADME
Excerpt: (§4) Final organic concentration in the assay was 1%.

P-gp (MDR1) = P-gp (MDR1) (Homo sapiens (Human), UniProt P08183); assay: MDR1 LLC-PK1 permeability assay: efflux ratio; format: in vitro ADME; details: pig
Excerpt: as §4

BCRP = BCRP (Homo sapiens (Human), UniProt Q9UNQ0); assay: BCRP MDCKII permeability assay: efflux ratio; format: in vitro ADME; details: dog
BCRP, sequence (Q9UNQ0 whole entry): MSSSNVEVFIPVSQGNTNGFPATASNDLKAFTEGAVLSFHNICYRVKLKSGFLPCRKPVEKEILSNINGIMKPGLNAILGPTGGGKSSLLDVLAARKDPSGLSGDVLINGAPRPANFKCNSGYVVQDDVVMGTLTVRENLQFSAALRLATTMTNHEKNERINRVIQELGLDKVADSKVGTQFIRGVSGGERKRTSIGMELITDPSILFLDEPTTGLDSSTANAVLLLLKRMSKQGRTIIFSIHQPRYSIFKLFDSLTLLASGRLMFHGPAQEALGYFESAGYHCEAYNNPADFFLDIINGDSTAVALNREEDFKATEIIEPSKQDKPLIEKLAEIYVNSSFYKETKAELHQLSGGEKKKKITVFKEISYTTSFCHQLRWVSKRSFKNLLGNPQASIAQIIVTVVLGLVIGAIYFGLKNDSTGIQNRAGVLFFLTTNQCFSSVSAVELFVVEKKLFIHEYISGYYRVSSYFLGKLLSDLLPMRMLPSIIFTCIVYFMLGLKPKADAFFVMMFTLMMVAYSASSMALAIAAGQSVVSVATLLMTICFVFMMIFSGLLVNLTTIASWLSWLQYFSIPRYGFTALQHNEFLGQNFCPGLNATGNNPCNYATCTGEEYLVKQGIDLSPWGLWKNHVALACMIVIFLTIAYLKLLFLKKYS

P-gp (MDR1), sequence (P08183 whole entry, species assumed): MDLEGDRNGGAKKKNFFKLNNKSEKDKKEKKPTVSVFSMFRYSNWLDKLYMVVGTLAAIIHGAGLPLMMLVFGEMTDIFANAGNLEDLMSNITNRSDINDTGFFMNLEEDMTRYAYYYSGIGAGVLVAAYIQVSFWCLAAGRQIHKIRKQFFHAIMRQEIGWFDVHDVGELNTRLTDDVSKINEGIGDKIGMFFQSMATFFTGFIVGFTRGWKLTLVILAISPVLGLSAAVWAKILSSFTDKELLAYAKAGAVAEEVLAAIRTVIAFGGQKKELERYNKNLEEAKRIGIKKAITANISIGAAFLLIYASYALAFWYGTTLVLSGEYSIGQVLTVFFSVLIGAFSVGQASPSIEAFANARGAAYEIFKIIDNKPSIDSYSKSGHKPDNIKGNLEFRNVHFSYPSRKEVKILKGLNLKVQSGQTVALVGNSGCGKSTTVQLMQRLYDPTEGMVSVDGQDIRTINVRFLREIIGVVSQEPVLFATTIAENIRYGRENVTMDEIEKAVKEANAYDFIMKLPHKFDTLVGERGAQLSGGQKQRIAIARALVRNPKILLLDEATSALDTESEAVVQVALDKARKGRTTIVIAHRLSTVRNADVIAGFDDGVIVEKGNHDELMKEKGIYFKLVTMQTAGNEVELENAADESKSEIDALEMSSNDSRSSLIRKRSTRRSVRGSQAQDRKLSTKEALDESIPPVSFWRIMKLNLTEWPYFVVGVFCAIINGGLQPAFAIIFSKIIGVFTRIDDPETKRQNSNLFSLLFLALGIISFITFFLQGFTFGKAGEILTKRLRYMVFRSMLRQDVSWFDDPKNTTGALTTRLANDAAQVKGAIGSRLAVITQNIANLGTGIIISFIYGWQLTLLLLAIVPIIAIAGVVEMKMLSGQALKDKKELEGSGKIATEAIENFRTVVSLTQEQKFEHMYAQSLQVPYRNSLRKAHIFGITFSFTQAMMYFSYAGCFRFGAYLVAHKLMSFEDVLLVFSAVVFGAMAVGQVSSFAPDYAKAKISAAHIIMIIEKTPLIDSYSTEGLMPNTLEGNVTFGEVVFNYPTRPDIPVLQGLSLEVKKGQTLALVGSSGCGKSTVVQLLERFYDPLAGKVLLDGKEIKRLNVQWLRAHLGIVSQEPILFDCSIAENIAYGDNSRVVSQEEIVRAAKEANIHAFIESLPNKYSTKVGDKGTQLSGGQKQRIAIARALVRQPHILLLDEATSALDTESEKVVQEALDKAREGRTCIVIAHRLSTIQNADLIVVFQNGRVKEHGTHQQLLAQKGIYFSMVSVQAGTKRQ
full-length FLAG-tagged B-Raf(V600E), sequence (P15056 whole entry V600E): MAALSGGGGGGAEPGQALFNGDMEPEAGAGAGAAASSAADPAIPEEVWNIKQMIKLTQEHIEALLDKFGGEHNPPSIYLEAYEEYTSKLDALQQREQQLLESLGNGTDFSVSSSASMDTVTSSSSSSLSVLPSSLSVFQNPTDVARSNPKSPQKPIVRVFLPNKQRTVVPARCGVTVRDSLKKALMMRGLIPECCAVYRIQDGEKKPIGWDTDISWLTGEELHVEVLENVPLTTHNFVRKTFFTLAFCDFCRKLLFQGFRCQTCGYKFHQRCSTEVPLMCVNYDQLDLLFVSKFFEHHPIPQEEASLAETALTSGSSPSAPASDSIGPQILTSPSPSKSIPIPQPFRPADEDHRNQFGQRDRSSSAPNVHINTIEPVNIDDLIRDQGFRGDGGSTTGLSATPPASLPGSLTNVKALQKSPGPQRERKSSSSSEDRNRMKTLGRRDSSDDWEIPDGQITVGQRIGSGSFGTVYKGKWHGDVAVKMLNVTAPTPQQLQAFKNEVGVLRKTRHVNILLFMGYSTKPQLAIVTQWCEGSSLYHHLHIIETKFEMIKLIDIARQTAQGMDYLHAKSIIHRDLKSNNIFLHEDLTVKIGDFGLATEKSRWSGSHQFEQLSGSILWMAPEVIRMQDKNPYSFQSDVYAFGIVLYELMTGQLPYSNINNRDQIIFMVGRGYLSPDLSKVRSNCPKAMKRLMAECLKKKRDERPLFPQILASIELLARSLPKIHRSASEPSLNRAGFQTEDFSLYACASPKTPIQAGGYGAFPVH

SMILES	IC50 [1] [µM]	IC50 (A375 cells) [µM]	IC50 (H1755 cells) [µM]	Papp at 2 h, 1 µM [2] [×10⁻⁶ cm/s]	efflux ratio at 2 h, 1 µM (P-gp (MDR1))	efflux ratio at 2 h, 1 µM (BCRP)
COC1CN(S(=O)(=O)Nc2ccc(F)c(Oc3ccc4ncn(C)c(=O)c4c3Cl)c2Cl)C1 [Example 119, N-(2-chloro-3-((5-chloro-3-methyl-4-oxo-3,4-dihydroquinazolin-6-yl)oxy)-4-fluorophenyl)-3-methoxyazetidine-1-sulfonamide]	0.006	0.008	0.051	32	3.8	–
CCc1c(Nc2c(F)ccc(NS(=O)(=O)N3CCCC3)c2Cl)ccc2ncn(C)c(=O)c12 [Example 52, N-(2-chloro-3-((5-ethyl-3-methyl-4-oxo-3,4-dihydroquinazolin-6-yl)amino)-4-fluorophenyl)pyrrolidine-1-sulfonamide trifluoroacetate]	0.141	0.124	0.857	–	–	–
Cn1cnc2ccc(Nc3c(F)ccc(NS(=O)(=O)N4CC(COC(F)F)C4)c3Cl)c(F)c2c1=O [Example 139, N-(2-chloro-4-fluoro-3-((5-fluoro-3-methyl-4-oxo-3,4-dihydroquinazolin-6-yl)amino)phenyl)-3-((difluoromethoxy)methyl)azetidine-1-sulfonamide trifluoroacetate]	0.004	0.003	0.01	32	5.3	–
COCC1CN(S(=O)(=O)Nc2ccc(F)c(Nc3ccc4ncn(C)c(=O)c4c3Cl)c2Cl)C1 [Example 132, N-(2-chloro-3-((5-chloro-3-methyl-4-oxo-3,4-dihydroquinazolin-6-yl)amino)-4-fluorophenyl)-3-(methoxymethyl)azetidine-1-sulfonamide trifluoroacetate]	0.013	0.003	0.033	36	2.7	–
Cc1c(Nc2c(F)c(F)cc(NS(=O)(=O)N3CC4CC4C3)c2Cl)ccc2ncn(C)c(=O)c12 (centres unmarked) [Example 102, N-(2-chloro-3-((3,5-dimethyl-4-oxo-3,4-dihydroquinazolin-6-yl)amino)-4,5-difluorophenyl)-3-azabicyclo[3.1.0]hexane-3-sulfonamide]	0.001	0.073	0.702	–	–	–
Cc1c(Nc2c(F)c(F)cc(NS(=O)(=O)N3CC4CC3C4)c2Cl)ccc2ncn(C)c(=O)c12 [Example 101, N-(2-chloro-3-((3,5-dimethyl-4-oxo-3,4-dihydroquinazolin-6-yl)amino)-4,5-difluorophenyl)-2-azabicyclo[2.1.1]hexane-2-sulfonamide]	0.003	0.037	0.434	–	–	–
Cn1cnc2ccc(Oc3c(F)ccc(NS(=O)(=O)N4CC(F)C4)c3Cl)c(F)c2c1=O [Example 122, N-(2-chloro-4-fluoro-3-((5-fluoro-3-methyl-4-oxo-3,4-dihydroquinazolin-6-yl)oxy)phenyl)-3-fluoroazetidine-1-sulfonamide]	0.002	0.003	–	31	2.3	7.8
Cn1cnc2ccc(Nc3c(F)ccc(NS(=O)(=O)N4CC5(CCC5)C4)c3Cl)c(Cl)c2c1=O [Example 158, N-(2-chloro-3-((5-chloro-3-methyl-4-oxo-3,4-dihydroquinazolin-6-yl)amino)-4-fluorophenyl)-2-azaspiro[3.3]heptane-2-sulfonamide trifluoroacetate]	0.008	0.156	–	26	1.5	1.1
Cc1c(Nc2c(F)c(F)cc(NS(=O)(=O)N(C)C)c2Cl)ccc2ncn(C)c(=O)c12 [Example 98, N-(2-chloro-3-((3,5-dimethyl-4-oxo-3,4-dihydroquinazolin-6-yl)amino)-4,5-difluorophenyl)-(N,N-dimethyl)-sulfamide]	0.02	0.049	–	31	1.1	1.1
Cc1c(Nc2c(F)ccc(NS(=O)(=O)N3CCOCC3)c2Cl)ccc2ncn(C)c(=O)c12 [Example 79, N-(2-chloro-3-((3,5-dimethyl-4-oxo-3,4-dihydroquinazolin-6-yl)amino)-4-fluorophenyl)morpholine-4-sulfonamide]	0.111	0.138	–	28	1.3	1
CO[C@@H]1CCN(S(=O)(=O)Nc2cc(Cl)cc(Nc3ccc4ncn(C)c(=O)c4c3C)c2F)C1 [Example 105, (R)-N-(5-chloro-3-((3,5-dimethyl-4-oxo-3,4-dihydroquinazolin-6-yl)amino)-2-fluorophenyl)-3-methoxypyrrolidine-1-sulfonamide]	0.015	0.147	0.268	–	–	–
CO[C@H]1CN(S(=O)(=O)Nc2cc(F)c(F)c(Nc3ccc4ncn(C)c(=O)c4c3C)c2Cl)C[C@H]1F (relative stereo) [Example 100, cis-N-(2-chloro-3-((3,5-dimethyl-4-oxo-3,4-dihydroquinazolin-6-yl)amino)-4,5-difluorophenyl)-3-fluoro-4-methoxypyrrolidine-1-sulfonamide]	0.006	0.047	0.293	–	–	–
Cc1c(Nc2c(F)ccc(NS(=O)(=O)N3CC(OC(F)F)C3)c2Cl)ccc2ncn(C)c(=O)c12 [Example 161, N-(2-chloro-3-((3,5-dimethyl-4-oxo-3,4-dihydroquinazolin-6-yl)amino)-4-fluorophenyl)-3-(difluoromethoxy)azetidine-1-sulfonamide]	0.024	0.245	–	27	1.9	2.6
Cc1c(Oc2c(F)ccc(NS(=O)(=O)N3CC4CC4C3)c2Cl)ccc2ncn(C)c(=O)c12 (centres unmarked) [Example 91]	0.009	0.123	–	17	1.5	0.8
CCOC1CN(S(=O)(=O)Nc2ccc(F)c(Nc3ccc4ncn(C)c(=O)c4c3C)c2Cl)C1 [Example 160, N-(2-chloro-3-((3,5-dimethyl-4-oxo-3,4-dihydroquinazolin-6-yl)amino)-4-fluorophenyl)-3-ethoxyazetidine-1-sulfonamide]	0.033	0.087	–	38	1.3	1.3
C=Cc1c(Nc2c(F)ccc(NS(=O)(=O)N3CCCC3)c2Cl)ccc2ncn(C)c(=O)c12 [Example 51, N-(2-chloro-4-fluoro-3-((3-methyl-4-oxo-5-vinyl-3,4-dihydroquinazolin-6-yl)amino)phenyl)pyrrolidine-1-sulfonamide trifluoroacetate]	0.077	0.058	0.278	–	–	–
